Reference: ChEMBL document CHEMBL5233266, “β-Carboline as a Privileged Scaffold for Multitarget Strategies in Alzheimer's Disease Therapy” (J Med Chem, 2021)
Where “and” joins values, the source holds several entries; their conditions need not be identical. Equal entries are not always repeated.

Tests used:
[1] = target: T1, Amine oxidase [flavin-containing] A (Homo sapiens, UniProt P21397); assay: Inhibition of MAO-A (unknown origin)
T1 sequence (P21397 whole entry): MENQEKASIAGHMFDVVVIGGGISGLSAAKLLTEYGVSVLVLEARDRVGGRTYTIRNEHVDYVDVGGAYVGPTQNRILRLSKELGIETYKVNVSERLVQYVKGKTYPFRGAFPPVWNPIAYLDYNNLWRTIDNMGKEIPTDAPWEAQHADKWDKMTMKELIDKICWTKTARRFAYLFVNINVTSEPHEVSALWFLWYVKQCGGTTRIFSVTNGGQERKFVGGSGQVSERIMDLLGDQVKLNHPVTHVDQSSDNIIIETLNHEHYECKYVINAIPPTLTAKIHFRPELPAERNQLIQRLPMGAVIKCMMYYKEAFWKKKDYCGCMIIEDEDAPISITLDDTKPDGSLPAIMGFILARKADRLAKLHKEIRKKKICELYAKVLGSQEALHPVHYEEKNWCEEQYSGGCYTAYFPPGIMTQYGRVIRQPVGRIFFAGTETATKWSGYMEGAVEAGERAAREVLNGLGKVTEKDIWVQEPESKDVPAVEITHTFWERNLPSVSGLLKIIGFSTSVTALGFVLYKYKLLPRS

Cholinesterase = Cholinesterase (Homo sapiens, UniProt P06276); assay: Inhibition of BuChE (unknown origin)
Acetylcholinesterase = Acetylcholinesterase (Homo sapiens, UniProt P22303); assay: Inhibition of AChE (unknown origin)
[2] = target: 5-hydroxytryptamine receptor 2B (Homo sapiens, UniProt P41595); assay: Binding affinity to 5-HT2B (unknown origin) assessed as equilibrium binding constant
[3] = target: 5-hydroxytryptamine receptor 2B (Rattus norvegicus, UniProt P30994); assay: Displacement of [3H]-ketanserin from rat 5-HT2B expressed in mouse NIH/3T3 cells assessed as inhibition constant by Cheng-Prusoff equation analysis; assay type: cell-based
[4] = target: T2, Gamma-aminobutyric acid receptor subunit alpha-1 (Homo sapiens, UniProt P14867); assay: Binding affinity to human recombinant GABAA alpha1 receptor assessed as inhibition constant incubated for 1 hrs by liquid scintillation counting analysis
T2 sequence (P14867 whole entry): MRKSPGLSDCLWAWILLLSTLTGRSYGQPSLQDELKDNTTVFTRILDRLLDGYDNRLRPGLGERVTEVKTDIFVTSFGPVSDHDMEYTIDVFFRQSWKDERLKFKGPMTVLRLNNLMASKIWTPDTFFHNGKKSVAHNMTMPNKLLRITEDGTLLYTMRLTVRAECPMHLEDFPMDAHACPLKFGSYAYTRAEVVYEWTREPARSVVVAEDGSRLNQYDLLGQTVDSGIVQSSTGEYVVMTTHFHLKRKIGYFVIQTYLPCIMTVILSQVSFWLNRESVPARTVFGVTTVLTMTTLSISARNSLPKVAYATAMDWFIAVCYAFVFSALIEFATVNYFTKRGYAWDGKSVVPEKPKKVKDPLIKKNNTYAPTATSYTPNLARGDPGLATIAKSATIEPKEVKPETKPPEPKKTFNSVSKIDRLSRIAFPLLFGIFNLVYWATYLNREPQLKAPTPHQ

[5] = target: T3, Gamma-aminobutyric acid receptor subunit alpha-2 (Homo sapiens, UniProt P47869); assay: Binding affinity to human recombinant GABAA alpha2 receptor assessed as inhibition constant incubated for 1 hrs by liquid scintillation counting analysis
T3 sequence (P47869 whole entry): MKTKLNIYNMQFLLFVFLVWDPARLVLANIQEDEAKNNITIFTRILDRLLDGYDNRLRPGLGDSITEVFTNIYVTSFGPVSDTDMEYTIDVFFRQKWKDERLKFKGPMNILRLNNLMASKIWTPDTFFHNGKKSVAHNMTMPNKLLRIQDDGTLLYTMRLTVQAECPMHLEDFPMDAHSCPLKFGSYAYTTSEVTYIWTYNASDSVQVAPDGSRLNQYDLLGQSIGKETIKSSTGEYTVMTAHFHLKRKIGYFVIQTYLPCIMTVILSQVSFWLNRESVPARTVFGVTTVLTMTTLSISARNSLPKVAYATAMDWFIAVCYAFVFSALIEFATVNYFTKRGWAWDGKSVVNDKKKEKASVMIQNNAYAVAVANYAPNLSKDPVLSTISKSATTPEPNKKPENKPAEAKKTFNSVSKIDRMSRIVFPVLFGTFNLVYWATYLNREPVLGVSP

[6] = target: T4, Gamma-aminobutyric acid receptor subunit alpha-3 (Homo sapiens, UniProt P34903); assay: Binding affinity to human recombinant GABAA alpha3 receptor assessed as inhibition constant incubated for 1 hrs by liquid scintillation counting analysis
T4 sequence (P34903 whole entry): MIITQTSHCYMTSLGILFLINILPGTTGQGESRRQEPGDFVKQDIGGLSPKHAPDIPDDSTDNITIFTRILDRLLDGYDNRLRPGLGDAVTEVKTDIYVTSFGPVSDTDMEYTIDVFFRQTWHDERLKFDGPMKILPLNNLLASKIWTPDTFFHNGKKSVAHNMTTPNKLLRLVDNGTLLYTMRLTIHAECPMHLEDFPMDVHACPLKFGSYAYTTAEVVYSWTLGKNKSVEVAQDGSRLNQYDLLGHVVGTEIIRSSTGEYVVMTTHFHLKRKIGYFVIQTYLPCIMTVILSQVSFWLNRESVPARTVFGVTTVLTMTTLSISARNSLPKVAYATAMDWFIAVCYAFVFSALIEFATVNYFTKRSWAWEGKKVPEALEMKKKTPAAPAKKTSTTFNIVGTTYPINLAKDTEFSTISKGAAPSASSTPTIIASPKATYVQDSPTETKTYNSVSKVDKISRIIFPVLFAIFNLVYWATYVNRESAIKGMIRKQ

[7] = target: T5, Gamma-aminobutyric acid receptor subunit alpha-5 (Homo sapiens, UniProt P31644); assay: Binding affinity to human recombinant GABAA alpha5 receptor assessed as inhibition constant incubated for 1 hrs by liquid scintillation counting analysis
T5 sequence (P31644 whole entry): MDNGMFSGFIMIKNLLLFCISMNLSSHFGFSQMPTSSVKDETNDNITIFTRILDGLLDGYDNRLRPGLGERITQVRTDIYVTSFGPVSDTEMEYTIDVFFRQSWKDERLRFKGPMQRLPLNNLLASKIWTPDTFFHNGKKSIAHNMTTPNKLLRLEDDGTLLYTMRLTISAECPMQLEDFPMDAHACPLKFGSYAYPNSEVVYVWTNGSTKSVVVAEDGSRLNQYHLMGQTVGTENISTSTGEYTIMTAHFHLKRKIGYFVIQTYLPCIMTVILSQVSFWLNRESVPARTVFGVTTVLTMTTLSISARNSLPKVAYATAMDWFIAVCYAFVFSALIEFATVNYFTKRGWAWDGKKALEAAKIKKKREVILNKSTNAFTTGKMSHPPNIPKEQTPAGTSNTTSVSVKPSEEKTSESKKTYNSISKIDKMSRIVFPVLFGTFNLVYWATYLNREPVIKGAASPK

[8] = target: Gamma-aminobutyric acid receptor subunit alpha-6 (Homo sapiens, UniProt Q16445); assay: Binding affinity to human recombinant GABAA alpha6 receptor assessed as inhibition constant incubated for 1 hrs by liquid scintillation counting analysis
[9] = target: GABA-A receptor; anion channel; assay: Displacement of [3H]flunitrazepam from GABAA (unknown origin ) receptor by radioligand binding assay; assay type: protein-complex assay, Homo sapiens

Sequence of Gamma-aminobutyric acid receptor subunit alpha-6 (Q16445 whole entry): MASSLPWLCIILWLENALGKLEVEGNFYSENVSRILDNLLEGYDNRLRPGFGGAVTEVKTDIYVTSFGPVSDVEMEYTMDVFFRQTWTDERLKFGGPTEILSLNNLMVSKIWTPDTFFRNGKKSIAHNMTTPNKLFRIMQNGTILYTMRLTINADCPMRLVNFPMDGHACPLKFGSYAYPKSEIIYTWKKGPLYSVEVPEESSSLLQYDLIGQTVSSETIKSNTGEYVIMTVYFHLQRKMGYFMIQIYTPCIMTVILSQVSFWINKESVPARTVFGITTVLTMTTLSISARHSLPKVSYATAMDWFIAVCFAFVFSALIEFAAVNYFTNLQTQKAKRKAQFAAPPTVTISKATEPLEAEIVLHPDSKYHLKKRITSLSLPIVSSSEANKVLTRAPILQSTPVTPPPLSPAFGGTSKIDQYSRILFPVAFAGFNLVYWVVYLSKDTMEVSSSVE
Sequence of Cholinesterase (P06276 whole entry): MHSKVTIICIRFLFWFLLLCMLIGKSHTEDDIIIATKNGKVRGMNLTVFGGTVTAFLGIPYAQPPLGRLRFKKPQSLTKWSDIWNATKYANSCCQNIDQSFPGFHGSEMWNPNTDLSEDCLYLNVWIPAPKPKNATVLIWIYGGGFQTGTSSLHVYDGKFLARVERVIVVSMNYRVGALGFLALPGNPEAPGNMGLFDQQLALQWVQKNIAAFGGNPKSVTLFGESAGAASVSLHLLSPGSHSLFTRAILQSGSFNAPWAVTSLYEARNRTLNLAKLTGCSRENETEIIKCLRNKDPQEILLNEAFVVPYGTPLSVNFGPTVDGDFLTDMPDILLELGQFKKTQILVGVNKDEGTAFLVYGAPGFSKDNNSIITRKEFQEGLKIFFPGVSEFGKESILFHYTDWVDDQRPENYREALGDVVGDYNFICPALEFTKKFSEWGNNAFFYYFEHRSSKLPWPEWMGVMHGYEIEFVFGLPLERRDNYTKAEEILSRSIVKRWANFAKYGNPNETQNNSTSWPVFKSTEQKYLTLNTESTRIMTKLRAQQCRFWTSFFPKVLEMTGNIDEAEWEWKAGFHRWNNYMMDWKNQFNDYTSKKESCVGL
Sequence of 5-hydroxytryptamine receptor 2B (Homo sapiens, UniProt P41595) (P41595 whole entry): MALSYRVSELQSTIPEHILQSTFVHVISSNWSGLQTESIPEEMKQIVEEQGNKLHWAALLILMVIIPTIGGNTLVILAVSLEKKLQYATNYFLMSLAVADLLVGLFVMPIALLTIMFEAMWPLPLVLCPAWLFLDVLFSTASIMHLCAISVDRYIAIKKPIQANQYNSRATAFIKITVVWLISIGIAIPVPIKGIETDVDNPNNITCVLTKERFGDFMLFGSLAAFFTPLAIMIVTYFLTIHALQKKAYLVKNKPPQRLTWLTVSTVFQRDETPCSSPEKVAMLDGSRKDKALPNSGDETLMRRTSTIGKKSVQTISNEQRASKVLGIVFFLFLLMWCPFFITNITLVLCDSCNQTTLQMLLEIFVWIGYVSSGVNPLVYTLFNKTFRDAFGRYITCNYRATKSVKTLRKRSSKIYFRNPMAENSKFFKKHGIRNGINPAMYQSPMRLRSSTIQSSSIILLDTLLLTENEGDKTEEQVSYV
Sequence of 5-hydroxytryptamine receptor 2B (Rattus norvegicus, UniProt P30994) (P30994 whole entry): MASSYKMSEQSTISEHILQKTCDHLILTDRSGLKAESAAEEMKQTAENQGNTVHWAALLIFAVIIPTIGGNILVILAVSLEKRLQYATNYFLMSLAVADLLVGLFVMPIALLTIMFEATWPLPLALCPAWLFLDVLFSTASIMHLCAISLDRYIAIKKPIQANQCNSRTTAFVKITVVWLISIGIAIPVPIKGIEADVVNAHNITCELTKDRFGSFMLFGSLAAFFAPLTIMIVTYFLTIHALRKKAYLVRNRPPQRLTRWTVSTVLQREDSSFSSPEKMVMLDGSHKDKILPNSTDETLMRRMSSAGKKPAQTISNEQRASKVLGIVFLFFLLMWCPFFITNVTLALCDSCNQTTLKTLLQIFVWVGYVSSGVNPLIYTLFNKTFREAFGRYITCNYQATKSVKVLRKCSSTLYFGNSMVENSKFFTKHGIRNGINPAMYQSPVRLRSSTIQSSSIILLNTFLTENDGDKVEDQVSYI
Sequence of Acetylcholinesterase (P22303 whole entry): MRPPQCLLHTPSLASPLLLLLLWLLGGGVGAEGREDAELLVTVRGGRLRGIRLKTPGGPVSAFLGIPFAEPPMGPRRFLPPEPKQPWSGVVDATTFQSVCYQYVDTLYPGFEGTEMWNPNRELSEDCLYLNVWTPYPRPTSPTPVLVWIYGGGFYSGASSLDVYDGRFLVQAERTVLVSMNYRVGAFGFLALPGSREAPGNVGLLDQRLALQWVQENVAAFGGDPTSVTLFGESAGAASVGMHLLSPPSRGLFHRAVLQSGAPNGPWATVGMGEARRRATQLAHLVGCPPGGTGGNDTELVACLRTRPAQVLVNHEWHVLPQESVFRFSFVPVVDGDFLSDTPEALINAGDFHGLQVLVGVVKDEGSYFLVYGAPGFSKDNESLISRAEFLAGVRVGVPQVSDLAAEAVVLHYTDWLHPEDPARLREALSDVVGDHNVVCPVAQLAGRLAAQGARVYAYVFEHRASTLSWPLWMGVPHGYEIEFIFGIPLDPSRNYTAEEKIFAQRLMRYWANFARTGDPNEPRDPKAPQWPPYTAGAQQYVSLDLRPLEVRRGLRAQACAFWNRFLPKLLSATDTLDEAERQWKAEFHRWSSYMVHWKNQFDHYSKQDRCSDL

## COCc1ccc2c(c1)[nH]c1c(C)nccc12
[1]
  IC50: 30 nM

## Cc1nccc2c1[nH]c1cc(OCCCC(F)(F)F)ccc12
[1]
  IC50: 5 nM

## COc1ccc2c(c1)[nH]c1c(C(C)=O)nccc12 [ARENARINE C]
Cholinesterase
  IC50: 27000 nM
Acetylcholinesterase
  IC50: 4000 nM

## COc1ccc(CC2NCCc3c2[nH]c2cccc(I)c32)cc1OC (centres undefined)
[2]
  Kb: < 0.3 nM
[3]
  Ki: 0.1 nM

## COc1ccc(CC2NCCc3c2[nH]c2c(C)cc(C)cc32)cc1OC (centres undefined)
[2]
  Kb: < 0.3 nM and 0.08 nM
[3]
  Ki: 0.2 nM

## CCOC(=O)c1ncc2[nH]c3ccc(OCc4ccccc4)cc3c2c1COC
[4]
  Ki: 4 nM
[5]
  Ki: 4 nM
[6]
  Ki: 6 nM
[7]
  Ki: 5 nM
[8]
  Ki: > 1000 nM
[9]
  IC50: 0.5 nM

## CCOC(=O)c1cc2c(cn1)[nH]c1ccccc12
[4]
  Ki: 1 nM

## COc1ccc2c3ccnc(C)c3n(C)c2c1
[1]
  IC50: 11 nM

## O=C(NCCCCCCNc1c2c(nc3ccccc13)CCCC2)[C@@H]1Cc2c([nH]c3ccccc23)CN1
Cholinesterase
  INH: 22 nM
Acetylcholinesterase
  IC50: 22 nM

## CCc1cccc2[nH]c3c(c12)CCNC3Cc1ccc(OC)c(OC)c1 (centres undefined)
[2]
  Kb: < 0.3 nM
[3]
  Ki: 0.1 nM

## CCCC(=O)c1cc2c(cn1)[nH]c1ccccc12
[4]
  Ki: 2 nM
[5]
  Ki: 16 nM
[6]
  Ki: 21 nM
[7]
  Ki: 1000 nM
[8]
  Ki: > 3000 nM
[9]
  IC50: 3 nM

## CCCOc1ccc2[nH]c3cnc(C(=O)OCC)c(COC)c3c2c1
[4]
  Ki: 0.5 nM
[5]
  Ki: 1 nM
[6]
  Ki: 2 nM
[7]
  Ki: 2 nM
[8]
  Ki: 1300 nM
[9]
  IC50: 0.5 nM

## CCOC(=O)c1nc(C)c2[nH]c3cc(OC)c(OC)cc3c2c1CC
[4]
  Ki: 6 nM
[5]
  Ki: 19 nM
[6]
  Ki: 4 nM
[7]
  Ki: 3 nM
[8]
  Ki: 75 nM

## Cn1c2ccccc2c2cc[n+](-c3ccc(Cl)cc3)cc21
Cholinesterase
  IC50: 32000 nM and 116000 nM
Acetylcholinesterase
  IC50: 560 nM and 300 nM

## Cc1nccc2c1[nH]c1cc(OCCc3ccccc3)ccc12
[1]
  IC50: 5 nM

## COc1ccc(CC2NCCc3c2[nH]c2cccc(C)c32)cc1OC (centres undefined)
[2]
  Kb: 0.08 nM
[3]
  Ki: 0.1 nM

## C=CCOc1ccc2c(c1)[nH]c1c(C)nccc12
[1]
  IC50: 5 nM

## c1ccc2c(c1)[nH]c1c2ncc2[nH]c3ccccc3c21
[4]
  Ki: 1 nM
[5]
  Ki: 1 nM
[6]
  Ki: 1 nM
[7]
  Ki: 40 nM
[8]
  Ki: > 1000 nM

## c1ccc2c(CC3NCCc4c3[nH]c3ccccc43)cccc2c1 (centres undefined)
[2]
  Kb: 0.4 nM
[3]
  Ki: 0.4 nM

## COc1ccc(CC2NCCc3c2[nH]c2c(F)cc(F)cc32)cc1OC (centres undefined)
[2]
  Kb: < 0.3 nM
[3]
  Ki: 0.2 nM

## CCOC(=O)c1ncc2[nH]c3ccc(OC)cc3c2c1COC
[4]
  Ki: 0.1 nM
[5]
  Ki: 1 nM
[6]
  Ki: 2 nM
[7]
  Ki: 4 nM
[9]
  IC50: 0.5 nM

## CCOC(=O)c1ncc2[nH]c3ccccc3c2c1COC
[4]
  Ki: 0.6 nM
[5]
  Ki: 3 nM
[6]
  Ki: 5 nM
[7]
  Ki: 10 nM
[8]
  Ki: 1200 nM
[9]
  IC50: 0.5 nM

## Cc1nccc2c1[nH]c1cc(OCC(C)C)ccc12
[1]
  IC50: 5 nM

## COc1ccc(-[n+]2ccc3c4ccccc4n(C)c3c2)cc1
Cholinesterase
  IC50: 32000 nM and 116000 nM
Acetylcholinesterase
  IC50: 300 nM

## CCCn1c2cc(OCc3cn(Cc4ccccc4Cl)nn3)ccc2c2ccnc(C)c21
[1]
  IC50: 260 nM

## COc1ccc(CC2NCCc3c2[nH]c2ccc(C)cc32)c(Br)c1OC (centres undefined)
[2]
  Kb: < 0.3 nM
[3]
  Ki: 0.2 nM

## CCOC(=O)c1ncc2[nH]c3ccc(O)cc3c2c1COC
[4]
  Ki: 2 nM
[5]
  Ki: 5 nM
[6]
  Ki: 11 nM
[7]
  Ki: 19 nM
[8]
  Ki: 3000 nM
[9]
  IC50: 0.5 nM

## COC(=O)c1cc2c(cn1)[nH]c1ccc(NCc3ccccc3)cc12
[4]
  Ki: 5 nM
[5]
  Ki: 30 nM
[6]
  Ki: 49 nM
[7]
  Ki: 480 nM
[8]
  Ki: > 10000 nM
[9]
  IC50: 4 nM

## COc1ccc(CC2NCCc3c2[nH]c2ccc(C)cc32)c(Cl)c1OC (centres undefined)
[2]
  Kb: < 0.3 nM
[3]
  Ki: 0.2 nM

## S=C=Nc1cc2c(cn1)[nH]c1ccccc12
[4]
  Ki: 5 nM
[9]
  IC50: 3 nM

## COc1ccc(CC2NCCc3c2[nH]c2cccc(SC)c32)cc1OC (centres undefined)
[2]
  Kb: < 0.3 nM
[3]
  Ki: 0.1 nM

## CCc1c(C(=O)OC)nc(C)c2[nH]c3cc(OC)c(OC)cc3c12
[4]
  Ki: 6 nM
[5]
  Ki: 8 nM
[6]
  Ki: 4 nM
[7]
  Ki: 1 nM
[8]
  Ki: 130 nM

## O=c1c2cc(NS(=O)(=O)c3ccccc3OC(F)(F)F)ccc2cc2n1CCc1c-2[nH]c2ccccc12
Cholinesterase
  IC50: 3600 nM

## Cc1nccc2c1[nH]c1cc(CO)ccc12
[1]
  IC50: 40 nM
